Columns and labels:
HRV-C RdRp = target: T1, HRV-C RdRp (rhinovirus C15, UniProt E5D8F2); assay: primer extension RNA synthesis, denaturing PAGE; format: biochemical
T1 sequence (E5D8F2 1694-2153): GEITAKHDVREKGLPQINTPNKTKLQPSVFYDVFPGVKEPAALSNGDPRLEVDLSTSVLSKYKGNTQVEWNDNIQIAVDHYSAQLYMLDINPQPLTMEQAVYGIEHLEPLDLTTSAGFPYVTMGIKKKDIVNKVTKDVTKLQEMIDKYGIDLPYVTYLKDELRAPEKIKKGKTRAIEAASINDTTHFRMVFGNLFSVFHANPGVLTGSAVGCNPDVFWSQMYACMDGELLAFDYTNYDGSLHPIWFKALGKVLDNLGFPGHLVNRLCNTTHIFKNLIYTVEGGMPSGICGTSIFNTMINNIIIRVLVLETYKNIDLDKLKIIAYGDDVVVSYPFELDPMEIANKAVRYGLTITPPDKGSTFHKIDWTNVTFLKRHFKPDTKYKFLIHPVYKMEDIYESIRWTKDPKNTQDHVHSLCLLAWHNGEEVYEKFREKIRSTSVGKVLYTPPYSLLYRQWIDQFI

Hs CMPK2 [1] = target: T2, Hs CMPK2 (Homo sapiens, UniProt Q5EBM0); assay: kinase assay, CTP formation; format: biochemical; conditions: 1 mM CDP; phosphate donor ATP or GTP; 5 μM enzyme
T2 sequence (Q5EBM0 99-449): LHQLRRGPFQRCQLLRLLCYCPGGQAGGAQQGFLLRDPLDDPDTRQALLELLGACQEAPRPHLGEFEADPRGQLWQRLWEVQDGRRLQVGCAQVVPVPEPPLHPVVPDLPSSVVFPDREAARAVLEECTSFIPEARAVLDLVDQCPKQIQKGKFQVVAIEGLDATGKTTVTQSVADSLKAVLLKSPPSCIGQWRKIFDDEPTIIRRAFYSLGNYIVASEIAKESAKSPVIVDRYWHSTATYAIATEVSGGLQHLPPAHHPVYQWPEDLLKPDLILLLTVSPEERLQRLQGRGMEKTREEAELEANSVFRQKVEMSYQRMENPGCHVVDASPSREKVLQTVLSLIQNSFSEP

Hs CMPK2 [2] = target: T2, Hs CMPK2; assay: kinase assay, UTP formation; format: biochemical; conditions: 1 mM UDP; phosphate donor ATP or GTP; 5 μM enzyme
PV RdRp = PV RdRp (Human poliovirus 1 Mahoney, UniProt P03300); format: biochemical
Chain of PV RdRp (P03300 1749-2209 limits assumed): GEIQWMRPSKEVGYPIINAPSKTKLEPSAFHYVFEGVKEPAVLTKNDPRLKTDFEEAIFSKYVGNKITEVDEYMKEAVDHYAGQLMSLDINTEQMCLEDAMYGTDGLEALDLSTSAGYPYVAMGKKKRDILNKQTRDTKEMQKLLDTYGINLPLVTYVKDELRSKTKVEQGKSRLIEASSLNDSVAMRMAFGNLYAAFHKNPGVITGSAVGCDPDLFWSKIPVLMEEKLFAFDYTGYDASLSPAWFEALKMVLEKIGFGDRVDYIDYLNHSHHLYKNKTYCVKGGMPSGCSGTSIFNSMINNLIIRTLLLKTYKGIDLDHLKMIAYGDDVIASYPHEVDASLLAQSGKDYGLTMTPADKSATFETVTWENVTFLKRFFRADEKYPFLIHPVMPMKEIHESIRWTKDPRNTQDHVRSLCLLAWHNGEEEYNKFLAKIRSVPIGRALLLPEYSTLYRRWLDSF

Hs viperin = target: T3, Hs viperin (Homo sapiens, UniProt Q8WXG1); assay: LC/MS of extracts of transfected HEK293T cells; format: cell-based; conditions: endogenous CTP and SAM; vector control
T3 sequence (Q8WXG1 1-361): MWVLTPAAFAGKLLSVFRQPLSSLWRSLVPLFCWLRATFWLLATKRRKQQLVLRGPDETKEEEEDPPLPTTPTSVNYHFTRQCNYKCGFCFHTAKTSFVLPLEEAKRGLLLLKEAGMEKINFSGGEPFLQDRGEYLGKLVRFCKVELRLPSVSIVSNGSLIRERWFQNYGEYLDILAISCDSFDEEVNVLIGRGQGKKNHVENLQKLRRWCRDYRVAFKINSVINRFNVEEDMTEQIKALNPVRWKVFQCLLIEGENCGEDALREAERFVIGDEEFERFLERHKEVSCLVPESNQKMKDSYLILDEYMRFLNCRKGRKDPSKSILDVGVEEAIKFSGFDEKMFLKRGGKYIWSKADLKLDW

DV RdRp = DV RdRp (Dengue virus 2 Peru/IQT2913/1996, UniProt Q9WDA6); assay: primer extension RNA synthesis, denaturing PAGE; format: biochemical; conditions: 0.1 μM CTP; competes with CTP; incorporated as chain terminator
Chain of DV RdRp (Q9WDA6 2492-3391): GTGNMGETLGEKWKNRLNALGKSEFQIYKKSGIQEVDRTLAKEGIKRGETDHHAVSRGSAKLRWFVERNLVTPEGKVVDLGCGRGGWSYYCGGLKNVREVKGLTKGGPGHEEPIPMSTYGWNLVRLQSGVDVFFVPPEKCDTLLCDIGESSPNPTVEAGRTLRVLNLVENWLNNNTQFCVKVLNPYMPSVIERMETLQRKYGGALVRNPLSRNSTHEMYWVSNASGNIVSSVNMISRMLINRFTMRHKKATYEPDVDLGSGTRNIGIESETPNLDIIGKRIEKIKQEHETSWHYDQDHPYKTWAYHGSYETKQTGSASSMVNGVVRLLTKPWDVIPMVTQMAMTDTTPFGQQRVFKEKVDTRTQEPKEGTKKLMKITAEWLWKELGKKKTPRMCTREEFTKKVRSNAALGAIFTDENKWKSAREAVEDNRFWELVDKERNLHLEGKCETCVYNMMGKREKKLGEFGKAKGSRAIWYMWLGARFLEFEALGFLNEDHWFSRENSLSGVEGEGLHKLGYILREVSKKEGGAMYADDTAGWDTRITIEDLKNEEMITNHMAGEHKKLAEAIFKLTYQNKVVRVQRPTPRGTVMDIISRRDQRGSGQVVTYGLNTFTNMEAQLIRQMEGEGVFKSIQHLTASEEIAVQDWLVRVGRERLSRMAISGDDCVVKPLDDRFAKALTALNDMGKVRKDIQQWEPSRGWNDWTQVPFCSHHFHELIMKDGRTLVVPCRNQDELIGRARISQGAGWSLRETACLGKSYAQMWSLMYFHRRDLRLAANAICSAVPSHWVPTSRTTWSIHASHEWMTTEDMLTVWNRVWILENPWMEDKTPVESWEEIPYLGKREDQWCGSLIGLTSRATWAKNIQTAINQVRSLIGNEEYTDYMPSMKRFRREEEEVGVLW

WNV RdRp = WNV RdRp (West Nile virus strain NY-99, UniProt Q9Q6P4); assay: primer extension RNA synthesis, denaturing PAGE; format: biochemical
Chain of WNV RdRp (Q9Q6P4 2529-3433): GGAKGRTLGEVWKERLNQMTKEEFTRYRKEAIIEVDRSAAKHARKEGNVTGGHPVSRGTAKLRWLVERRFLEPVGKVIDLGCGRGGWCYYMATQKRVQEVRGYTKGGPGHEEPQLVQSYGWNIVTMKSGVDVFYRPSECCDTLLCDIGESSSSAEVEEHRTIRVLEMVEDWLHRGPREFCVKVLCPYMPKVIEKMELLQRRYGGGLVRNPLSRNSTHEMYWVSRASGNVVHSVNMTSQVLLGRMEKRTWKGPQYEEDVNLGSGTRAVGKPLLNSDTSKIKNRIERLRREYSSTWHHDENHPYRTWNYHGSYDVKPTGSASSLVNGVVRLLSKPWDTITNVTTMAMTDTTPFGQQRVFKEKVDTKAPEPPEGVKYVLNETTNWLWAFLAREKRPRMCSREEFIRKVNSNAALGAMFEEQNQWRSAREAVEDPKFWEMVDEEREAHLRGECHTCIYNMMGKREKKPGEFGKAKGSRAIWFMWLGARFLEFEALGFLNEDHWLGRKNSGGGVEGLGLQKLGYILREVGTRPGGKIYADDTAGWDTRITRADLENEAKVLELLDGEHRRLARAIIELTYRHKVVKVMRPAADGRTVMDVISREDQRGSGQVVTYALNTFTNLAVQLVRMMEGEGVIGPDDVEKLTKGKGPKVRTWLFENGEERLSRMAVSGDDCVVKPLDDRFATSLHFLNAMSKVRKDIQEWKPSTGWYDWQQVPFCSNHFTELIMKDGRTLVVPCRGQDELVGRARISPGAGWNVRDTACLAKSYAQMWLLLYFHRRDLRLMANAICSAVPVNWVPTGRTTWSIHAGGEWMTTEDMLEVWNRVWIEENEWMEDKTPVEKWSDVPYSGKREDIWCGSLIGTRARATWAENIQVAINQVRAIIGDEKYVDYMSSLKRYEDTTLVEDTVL

`Nc1ccn([C@@H]2O[C@H](COP(=O)(O)OP(=O)(O)OP(=O)(O)O)C[C@H]2O)c(=O)n1` [3′-dCTP] was tested, and the IC50 (HRV-C RdRp) was 5 ± 1 µM.
`Nc1ccn([C@@H]2O[C@H](COP(=O)(O)OP(=O)(O)O)[C@@H](O)[C@H]2O)c(=O)n1` [CDP] was tested, and the “kinase assay, CTP formation” value (Hs CMPK2 [1]) was “Hs CMPK2 exhibits significant preference for CDP and UDP as substrates”.
`O=c1ccn([C@@H]2O[C@H](COP(=O)(O)OP(=O)(O)O)[C@@H](O)[C@H]2O)c(=O)[nH]1` [UDP] was tested, and the “kinase assay, UTP formation” value (Hs CMPK2 [2]) was “Hs CMPK2 exhibits significant preference for CDP and UDP as substrates”.
For `Nc1ccn([C@@H]2OC(COP(=O)(O)OP(=O)(O)OP(=O)(O)O)=C[C@H]2O)c(=O)n1` [ddhCTP], the “primer extension RNA synthesis, denaturing PAGE” value (PV RdRp) was “both HRV-C and PV RdRp were poorly inhibited by ddhCTP”, the “LC/MS of extracts of transfected HEK293T cells” value (Hs viperin) was “HEK293T cells transfected with the Hs viperin plasmid exhibited considerable intracellular ddhCTP levels” and the IC50 (DV RdRp) was 60 ± 10 µM. It also gave an IC50 (WNV RdRp) of 20 ± 10 µM and an IC50 (HRV-C RdRp) of 900 ± 300 µM.
